# Assay results from patent US12636284B2, “Compositions for use in the prevention and/or treatment of intellectual disability and neurodegenerative diseases in a subject with down syndrome” (UNIVERSITA' DEGLI STUDI DI ROMA “LA SAPIENZA”, priority 2021, dated 2026).
# Tests used:
# [1] = system: GABAergic transmission in Ts2Cje mice; assay: Patch-clamp electrophysiology, CA1 neurons of hippocampal sections, Ts2Cje mice; assay type: in vivo, mouse; conditions: Ts2Cje mice (Ts+S) vs vehicle-treated Ts2Cje, after 21 days intranasal treatment
# From the text: The brain sections containing the hippocampus were obtained from mice belonging to the four experimental groups (Eu Veh, Eu SITA, Ts2 Veh and Ts2 SITA) at 9 months of age after being euthanized by an overdose of isofluorane. Brains were quickly removed and placed in an ice-cold cutting solution containing the following (in mM): 124 NaCl, 3.2 KCl, 1 NaH2PO4, 2 MgCl2, 1 CaCl2), 26 NaHCO3, 10 glucose, 2 Na-pyruvate and 0.6 ascorbic acid, pH 7.4, 95% O2/5% CO2. The brain sections containing the hippocampus ([…]) were cut using a vibratome (VT1000S; Leica Microsystems) and immediately transferred to an incubation chamber filled with ACSF containing the following (in mM): 124 NaCl, 3.2 KCl, 1 NaH2PO4, 1 MgCl2, 2 CaCl2, 26 NaHCO3 and 10 glucose, pH 7.4, 95% O2/5% CO2. Brain sections were allowed to recover at 32° C. for 1 hour before being equilibrated to room temperature. For electrophysiological recordings, brain sections were transferred to a recording chamber constantly perfused with heated ACSF (32° C.) and bubbled with 95% O2/5% CO2. Subsequently, the slices were used for electrophysiological recordings. All electrophysiological recordings were performed using the patch-clamp technique in the whole-cell configuration. […] Membrane capacity and resistance were assessed in the same neurons. […]
# GSK3b protein = assay: GSK3b activation (pSer9/pTyr216 ratio) in primary hippocampal neurons isolated from Ts2Cje mice; assay type: cell-based, mouse; conditions: 1, 5, 10 μM for 24 hours
# Experimental: For Western blots, 20 μg of proteins from the hippocampus of mice belonging to the four experimental groups were separated by 4-15% SDS-PAGE CriterionTM […] (Bio-rad, Hercules, CAUSE). […] Therefore, the gel, once the image has been acquired, represents the total of the loaded proteins (Total Load), which will then be used to normalize the specific proteins to be examined. After electrophoresis and gel imaging, proteins are transferred via the semi-dry TransBlot Turbo apparatus (Bio-Rad Laboratories) onto nitrocellulose membranes (Bio-Rad, Hercules, CA, USA). Nitrocellulose membranes are blocked with 3% bovine serum albumin (BSA) in a solution of Tween 20-TBS and incubated overnight at 4° C. using specific primary antibodies: p([…])-GSK3B (1:1000, Santa Cruz, #sc-135653), p(S9)-GSK3β (1:1000, Cell Signaling, #5558S), GSK3β (1:1000 Abcam, #93926) and DYRK1A (1:1000, Cell Signaling, #8765S), MAPK44/42 (1:1000, Cell Signaling, #9102), p[…])-MAPK44/42 (1 1000, Cell Signaling, #9101), Akt (1:2000, Bio-Rad, # vma00253K), p(S473) Akt (1:1000, Cell Signaling, #4060S). After three washes with a T-TBS buffer solution, membranes were incubated for 1 hour at room temperature with the secondary antibodies. Secondary antibodies with peroxidase activity are anti-mouse or anti-rabbit (1:5000, Bio-rad, Hercules, CA, USA). […] Finally, the results obtained were analyzed using the ImageLab program (Bio-rad, Hercules, CA, USA). […] In order to isolate primary hippocampal neurons, hippocampi from Ts and euploid mice were mechanically dissociated in PBS (with Ca^2+ and […]) and centrifuged (3 minutes, 1100 rpm, 25° C.). Subsequently, the pellet was resuspended in 0.25% trypsin solution and centrifuged further for 3 minutes at 1100 rpm at Tamb. At this point, the cell extract was resuspended in MEM 1 culture medium (Minimum Essential Medium complemented with fetal bovine serum (FBS-1%), L-glutamine 200 mM (1%), glucose 25 mM (1%), gentamicin 0.1 mg/ml) and centrifuged for 10 minutes, 1100 rpm at 25° C. […]
structure (smiles),measurement,setting,value
"N[C@@H](CC(=O)N1CCn2c(nnc2C(F)(F)F)C1)Cc1cc(F)c(F)cc1F [sitagliptin, (R)-4-oxo-4-[3-(trifluoromethyl)-5,6-dihydro[1,2,4]triazole[4,3-a]pyrazin-7(8H)-yl]-1-(2,4,5-trifluorophenyl)butan-2-amine]","spontaneous release rate of the neurotransmitter, CA1 hippocampal neurons",[1],completely reverts the increase in the spontaneous release rate of the neurotransmitter
same,activity of the GSK3B protein in Ts2Cje neurons,GSK3b protein,significant increase
